According to ChEMBL document CHEMBL1201862, “PubChem BioAssay data set” (2004):
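Method: 48-hour compound exposure of cells in 96-well plates, five concentrations, linear interpolation of endpoints. Here, GI50 denotes the concentration required for 50% inhibition of growth.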 Calls of active or inactive are those of the source. Rule as the data show it: active = GI50 up to about 1.1 µM and inactive = higher.

What was measured:
Assay in all cases: NCI tumour cell line growth inhibition, 48 h
KM12 = tested on: KM12
NCI-H226 = tested on: NCI-H226
K562 = tested on: K562
Malme-3M = tested on: Malme-3M
NCI-H23 = tested on: NCI-H23
MDA-MB-435 = tested on: MDA-MB-435
LOX IMVI = tested on: LOX IMVI
HOP-62 = tested on: HOP-62
T47D = tested on: T47D
HOP-92 = tested on: HOP-92
NCI-H522 = tested on: NCI-H522
PC-3 = tested on: PC-3
BT-549 = tested on: BT-549
MDA-N = tested on: MDA-N
SNB-19 = tested on: SNB-19
RXF 393 = tested on: RXF 393
HCT-15 = tested on: HCT-15
MOLT-4 = tested on: MOLT-4
OVCAR-4 = tested on: OVCAR-4
HL-60 = tested on: HL-60
A549 = tested on: A549
EKVX = tested on: EKVX
CAKI-1 = tested on: CAKI-1
OVCAR-8 = tested on: OVCAR-8
SW-620 = tested on: SW-620
SF-295 = tested on: SF-295
DU-145 = tested on: DU-145
MDA-MB-231 = tested on: MDA-MB-231
IGROV-1 = tested on: IGROV-1
RPMI-8226 = tested on: RPMI-8226
HCT-116 = tested on: HCT-116
OVCAR-3 = tested on: OVCAR-3
TK-10 = tested on: TK-10
UO-31 = tested on: UO-31
MCF7 = tested on: MCF7
SK-MEL-5 = tested on: SK-MEL-5
ACHN = tested on: ACHN
OVCAR-5 = tested on: OVCAR-5
SF-268 = tested on: SF-268
SK-MEL-2 = tested on: SK-MEL-2
CCRF-CEM = tested on: CCRF-CEM
M14 = tested on: M14
SR = tested on: SR
786-0 = tested on: 786-0
SNB-75 = tested on: SNB-75
NCI/ADR-RES = tested on: NCI/ADR-RES
HT-29 = tested on: HT-29
Hs-578T = tested on: Hs-578T
SF-539 = tested on: SF-539
SK-MEL-28 = tested on: SK-MEL-28
U-251 = tested on: U-251
SN12C = tested on: SN12C
COLO 205 = tested on: COLO 205
UACC-257 = tested on: UACC-257
SK-OV-3 = tested on: SK-OV-3
A498 = tested on: A498
HCC 2998 = tested on: HCC 2998
UACC-62 = tested on: UACC-62
NCI-H460 = tested on: NCI-H460

O=C(c1ccccc1)c1ccc2[nH]c(-c3c(Cl)c(Cl)c(Cl)c(Cl)c3C(=O)N/N=C/c3cccc(Oc4ccccc4)c3)nc2c1
GI50 (KM12): > 100 µM (inactive)
GI50 (NCI-H226): 84.1 µM (inactive)
GI50 (K562): 46.5 µM (inactive)
GI50 (Malme-3M): > 100 µM (inactive)
GI50 (NCI-H23): 74.1 µM (inactive)
GI50 (MDA-MB-435): 38.1 µM (inactive)
GI50 (LOX IMVI): > 100 µM (inactive)
GI50 (HOP-62): 65.2 µM (inactive)
GI50 (T47D): 36.1 µM (inactive)
GI50 (HOP-92): 55.7 µM (inactive)
GI50 (NCI-H522): 45 µM (inactive)
GI50 (PC-3): 77.4 µM (inactive)
GI50 (BT-549): 93.8 µM (inactive)
GI50 (MDA-N): 46.5 µM (inactive)
GI50 (SNB-19): 69.2 µM (inactive)
GI50 (RXF 393): 68.2 µM (inactive)
GI50 (HCT-15): 45.4 µM
GI50 (MOLT-4): 50.4 µM (inactive)
GI50 (OVCAR-4): 99.3 µM (inactive)
GI50 (HL-60): 17.6 µM (inactive)
GI50 (A549): > 100 µM (inactive)
GI50 (EKVX): > 100 µM (inactive)
GI50 (CAKI-1): > 100 µM (inactive)
GI50 (OVCAR-8): 75.2 µM (inactive)
GI50 (SW-620): 56.1 µM (inactive)
GI50 (SF-295): 54.7 µM (inactive)
GI50 (DU-145): > 100 µM (inactive)
GI50 (MDA-MB-231): > 100 µM (inactive)
GI50 (IGROV-1): > 100 µM (inactive)
GI50 (RPMI-8226): > 100 µM (inactive)
GI50 (HCT-116): 76.6 µM (inactive)
GI50 (OVCAR-3): 75.7 µM (inactive)
GI50 (TK-10): > 100 µM (inactive)
GI50 (UO-31): > 100 µM (inactive)
GI50 (MCF7): 42 µM (inactive)
GI50 (SK-MEL-5): 90.6 µM (inactive)
GI50 (ACHN): > 100 µM (inactive)
GI50 (OVCAR-5): > 100 µM (inactive)
GI50 (SF-268): 76.7 µM (inactive)
GI50 (SK-MEL-2): 46.2 µM (inactive)
GI50 (CCRF-CEM): 39.6 µM (inactive)
GI50 (M14): > 100 µM (inactive)
GI50 (SR): 36.3 µM (inactive)
GI50 (786-0): > 100 µM (inactive)
GI50 (SNB-75): 60.8 µM (inactive)
GI50 (NCI/ADR-RES): 95.1 µM (inactive)
GI50 (HT-29): > 100 µM (inactive)
GI50 (Hs-578T): > 100 µM (inactive)
GI50 (SF-539): > 100 µM (inactive)
GI50 (SK-MEL-28): > 100 µM (inactive)
GI50 (U-251): 54.7 µM (inactive)
GI50 (SN12C): > 100 µM (inactive)
GI50 (COLO 205): > 100 µM (inactive)
GI50 (UACC-257): > 100 µM (inactive)
GI50 (SK-OV-3): > 100 µM (inactive)

CC(C)C1(C)N=C(C(F)(F)F)c2cc(C(=O)C(F)(F)F)c3ccccc3c2N1 (stereo not drawn)
GI50 (A498): 14.9 µM (inactive)
GI50 (KM12): 3.31 µM (inactive)
GI50 (NCI-H226): 12.9 µM (inactive)
GI50 (K562): 3.96 µM (inactive)
GI50 (Malme-3M): 3 µM (inactive)
GI50 (NCI-H23): 2.77 µM (inactive)
GI50 (MDA-MB-435): 3.21 µM (inactive)
GI50 (LOX IMVI): 2.45 µM (inactive)
GI50 (HOP-62): 4.9 µM (inactive)
GI50 (HCC 2998): 3.69 µM (inactive)
GI50 (T47D): 3.13 µM (inactive)
GI50 (NCI-H522): 2.3 µM (inactive)
GI50 (PC-3): 2.52 µM (inactive)
GI50 (BT-549): 3.08 µM (inactive)
GI50 (MDA-N): 3.04 µM (inactive)
GI50 (SNB-19): 4.14 µM (inactive)
GI50 (RXF 393): 2.71 µM (inactive)
GI50 (HCT-15): 3.23 µM
GI50 (MOLT-4): 3.07 µM (inactive)
GI50 (UACC-62): 4.33 µM (inactive)
GI50 (OVCAR-4): 4.91 µM (inactive)
GI50 (HL-60): 4.62 µM (inactive)
GI50 (A549): 5.43 µM (inactive)
GI50 (EKVX): 4.91 µM (inactive)
GI50 (CAKI-1): 3.34 µM (inactive)
GI50 (OVCAR-8): 4.17 µM (inactive)
GI50 (SW-620): 5.55 µM (inactive)
GI50 (SF-295): 3.38 µM (inactive)
GI50 (DU-145): 3.71 µM (inactive)
GI50 (MDA-MB-231): 2.73 µM (inactive)
GI50 (IGROV-1): 1.16 µM (inactive)
GI50 (RPMI-8226): 3.53 µM (inactive)
GI50 (HCT-116): 2.94 µM (inactive)
GI50 (OVCAR-3): 3.08 µM (inactive)
GI50 (TK-10): 4.51 µM (inactive)
GI50 (UO-31): 5.9 µM (inactive)
GI50 (MCF7): 4.03 µM (inactive)
GI50 (SK-MEL-5): 10.7 µM (inactive)
GI50 (ACHN): 3.53 µM (inactive)
GI50 (OVCAR-5): 11.2 µM (inactive)
GI50 (NCI-H460): 4.41 µM (inactive)
GI50 (SF-268): 3.02 µM (inactive)
GI50 (SK-MEL-2): 2.51 µM (inactive)
GI50 (CCRF-CEM): 15.8 µM (inactive)
GI50 (M14): 4.99 µM (inactive)
GI50 (SR): 4.39 µM (inactive)
GI50 (786-0): 3.7 µM (inactive)
GI50 (SNB-75): 2.31 µM (inactive)
GI50 (NCI/ADR-RES): 2.78 µM (inactive)
GI50 (HT-29): 3.44 µM (inactive)
GI50 (Hs-578T): 2.5 µM (inactive)
GI50 (SF-539): 6.5 µM (inactive)
GI50 (SK-MEL-28): 5.22 µM (inactive)
GI50 (U-251): 2.91 µM (inactive)
GI50 (SN12C): 2.91 µM (inactive)
GI50 (COLO 205): 4.14 µM (inactive)
GI50 (UACC-257): 6.55 µM (inactive)
GI50 (SK-OV-3): 15 µM (inactive)
